Measured values published in ChEMBL document CHEMBL1149146, “Synthesis and biological evaluation of new 1,2-dihydro-4-hydroxy-2-oxo-3-quinolinecarboxamides for treatment of autoimmune disorders: structure-activity relationship” (2004).
Active and inactive are the calls of the source.

Assays:
Mus musculus [1] = assay: Inhibition of acute experimental autoimmune encephalomyelitis (aEAE) induced in SJL/N mice at a dose of 1 mg/kg/day, (po); format: functional
Mus musculus [2] = assay: Inhibition of acute experimental autoimmune encephalomyelitis in SJL/N mice by 5 mg/kg/day p.o.; format: functional; settings: route oral
Mus musculus [3] = assay: Inhibition of acute experimental autoimmune encephalomyelitis (aEAE) induced in SJL/N mice at a dose of 0.2 mg/kg/day, (po) was determined; Inactive <35% inhibition; format: functional, organism-based
Mus musculus [4] = assay: Inhibition of acute experimental autoimmune encephalomyelitis (aEAE) induced in SJL/N mice at a dose of 1 mg/kg/day, (po) was determined; Inactive; format: functional
Mus musculus [5] = assay: Inhibition of acute experimental autoimmune encephalomyelitis (aEAE) induced in SJL/N mice at a dose of 0.2 mg/kg/day, (po) was determined; Inactive; format: functional
Mus musculus [6] = assay: Inhibition of acute experimental autoimmune encephalomyelitis (aEAE) induced in SJL/N mice at a dose of 5 mg/kg/day, (po) was determined; Inactive; format: functional
Mus musculus [7] = assay: Inhibition of acute experimental autoimmune encephalomyelitis (aEAE) induced in SJL/N mice at a dose of 0.2 mg/kg/day, (sc) was determined; Inactive; format: functional
Mus musculus [8] = assay: Inhibition of acute experimental autoimmune encephalomyelitis (aEAE) induced in SJL/N mice at a dose of 5 mg/kg/day was determined; format: functional
Mus musculus [9] = assay: Inhibition of acute experimental autoimmune encephalomyelitis (aEAE) induced in SJL/N mice at a dose of 1 mg/kg/day, (sc) was determined; Inactive; format: functional
Mus musculus [10] = assay: Inhibition of acute experimental autoimmune encephalomyelitis (aEAE) induced in SJL/N mice at a dose of 5 mg/kg/day, (sc) was determined; format: functional
Mus musculus [11] = assay: Inhibition of acute experimental autoimmune encephalomyelitis (aEAE) induced in SJL/N mice at a dose of 0.2 mg/kg/day, (po/sc) was determined; Inactive; format: functional
Mus musculus [12] = assay: Inhibition of acute experimental autoimmune encephalomyelitis in SJL/N mice by 5 mg/kg/day p.o./s.c.; format: functional; settings: route oral
Mus musculus [13] = assay: Inhibition of acute experimental autoimmune encephalomyelitis in SJL/N mice by 1 mg/kg/day p.o./s.c.; format: functional; settings: route oral
Mus musculus [14] = assay: Inhibition of acute experimental autoimmune encephalomyelitis (aEAE) induced in SJL/N mice at a dose of 1 mg/kg/day, (po/sc) was determined; Inactive; format: functional
Mus musculus [15] = assay: Inhibition of acute experimental autoimmune encephalomyelitis (aEAE) induced in SJL/N mice at a dose of 5 mg/kg/day, (po/sc) was determined; Inactive; format: functional
Mus musculus [16] = assay: Inhibition of acute experimental autoimmune encephalomyelitis in SJL/N mice by 0.2 mg/kg/day p.o./s.c.; format: functional; settings: po
Mus musculus [17] = assay: Inhibition of acute experimental autoimmune encephalomyelitis (aEAE) in SJL/N mice at a dose of 1 mg/kg/day, (po/sc) was determined; format: functional
Mus musculus [18] = assay: Inhibition of acute experimental autoimmune encephalomyelitis (aEAE) in SJL/N mice at a dose of 5 mg/kg/day, (po/sc) was determined; format: functional

`CCN(C(=O)c1c(O)c2c(C)cccc2n(C)c1=O)c1ccccc1` was tested. Which inhibition in vivo at 1 mg/kg/day (Mus musculus [1]) did it give?
Its inhibition in vivo at 1 mg/kg/day is 65%.

What about the inhibition in vivo at 5 mg/kg/day (Mus musculus [2]) of the same molecule?
The inhibition in vivo at 5 mg/kg/day was 85%.

What about the inhibition (Mus musculus [3]) of the same molecule?
The inhibition was “inactive”.

With `COc1cccc2c1c(O)c(C(=O)N(C)c1cccc(F)c1F)c(=O)n2C` as the molecule, how does the inhibition in vivo at 1 mg/kg/day (Mus musculus [4]) read?
The inhibition in vivo at 1 mg/kg/day was under 35%.

And the inhibition in vivo at 0.2 mg/kg/day (Mus musculus [5])?
Its inhibition in vivo at 0.2 mg/kg/day is under 35%.

What does the source list for `CCc1ccc2c(c1)c(O)c(C(=O)N(CC)c1ccccc1)c(=O)n2C`?
inhibition in vivo at 1 mg/kg/day (Mus musculus [4]): < 35%; inhibition in vivo at 5 mg/kg/day (Mus musculus [6]): < 35%

For `CN(C(=O)c1c(O)c2cccc(F)c2n(C)c1=O)c1ccc(F)cc1`, which inhibition in vivo at 0.2 mg/kg/day (Mus musculus [7]) is on record?
Its inhibition in vivo at 0.2 mg/kg/day is under 35%.

What about the inhibition in vivo at 5 mg/kg/day (Mus musculus [8]) of the same molecule?
Its inhibition in vivo at 5 mg/kg/day is 55%.

What about the inhibition in vivo at 1 mg/kg/day (Mus musculus [9]) of the same molecule?
Its inhibition in vivo at 1 mg/kg/day is under 35%.

`CCOc1ccc2c(c1)c(O)c(C(=O)N(C)c1ccc(F)cc1)c(=O)n2C` was tested. Which inhibition in vivo at 5 mg/kg/day (Mus musculus [10]) did it give?
The inhibition in vivo at 5 mg/kg/day was 53%.

What does the source list for `CCN(C(=O)c1c(O)c2cc(Cl)ccc2n(C)c1=O)c1ccccc1`?
inhibition in vivo at 0.2 mg/kg/day (Mus musculus [11]): < 35%; inhibition in vivo at 5 mg/kg/day (Mus musculus [12]): 83%; inhibition in vivo at 1 mg/kg/day (Mus musculus [13]): 62%

With `CN(C(=O)c1c(O)c2c(Oc3ccc(F)cc3)cccc2n(C)c1=O)c1ccccc1` as the molecule, how does the inhibition in vivo at 1 mg/kg/day (Mus musculus [4]) read?
Its inhibition in vivo at 1 mg/kg/day is under 35%.

What about the inhibition in vivo at 5 mg/kg/day (Mus musculus [6]) of the same molecule?
Its inhibition in vivo at 5 mg/kg/day is under 35%.

Which results are given for `COc1ccccc1N(C)C(=O)c1c(O)c2c(OC)cccc2n(C)c1=O`?
inhibition in vivo at 1 mg/kg/day (Mus musculus [4]): < 35%; inhibition in vivo at 0.2 mg/kg/day (Mus musculus [5]): < 35%

For `Cc1ccc2c(O)c(C(=O)N(C)c3ccccc3)c(=O)n(C)c2c1`, which inhibition in vivo at 5 mg/kg/day (Mus musculus [10]) is on record?
The inhibition in vivo at 5 mg/kg/day was 53%.

With `COc1ccc(N(C)C(=O)c2c(O)c3ccccc3n(C3CC3)c2=O)cc1` as the molecule, how does the inhibition in vivo at 1 mg/kg/day (Mus musculus [14]) read?
The inhibition in vivo at 1 mg/kg/day was under 35%.

What about the inhibition in vivo at 5 mg/kg/day (Mus musculus [15]) of the same molecule?
Its inhibition in vivo at 5 mg/kg/day is under 35%.

For `CCN(C(=O)c1c(O)c2cc(C)ccc2n(C)c1=O)c1ccccc1`, which inhibition in vivo at 1 mg/kg/day (Mus musculus [4]) is on record?
Its inhibition in vivo at 1 mg/kg/day is under 35%.

What about the inhibition in vivo at 0.2 mg/kg/day (Mus musculus [5]) of the same molecule?
The inhibition in vivo at 0.2 mg/kg/day was under 35%.

Which inhibition in vivo at 5 mg/kg/day (Mus musculus [10]) does the source give for `CN(C(=O)c1c(O)c2ccc(C(F)(F)F)cc2n(C)c1=O)c1ccc(F)cc1` here?
Its inhibition in vivo at 5 mg/kg/day is 35%.

`CN(C)c1ccc2c(c1)c(O)c(C(=O)N(C)c1ccccc1)c(=O)n2C` was tested. Which inhibition in vivo at 5 mg/kg/day (Mus musculus [6]) did it give?
Its inhibition in vivo at 5 mg/kg/day is under 35%.

Which results are given for `COc1cccc2c1c(O)c(C(=O)N(C)c1ccccc1Cl)c(=O)n2C`?
inhibition in vivo at 1 mg/kg/day (Mus musculus [1]): 50%; inhibition in vivo at 5 mg/kg/day (Mus musculus [2]): 68%; inhibition in vivo at 0.2 mg/kg/day (Mus musculus [5]): < 35%

What does the source list for `CN(C(=O)c1c(O)c2ccccc2n(C)c1=O)c1ccccc1` [ROQUINIMEX]?
inhibition in vivo at 0.2 mg/kg/day (Mus musculus [16]): 35%; inhibition in vivo at 1 mg/kg/day (Mus musculus [17]): 43%; inhibition in vivo at 5 mg/kg/day (Mus musculus [18]): 71%
